Where “and” joins values, the source holds several entries; their conditions need not be identical. Identical values can stand only once.
Tested on: P. falciparum 3D7 growth, pLDH absorbance
Assay: P. falciparum 3D7 growth inhibition, dose response, strain 3D7 (AID 2305)

Which IC50 does the source give for `CCc1ccc(NC(=O)c2cccc(CN3CCCN(Cc4cccc(O)c4)CC3)c2)cc1` here?
The IC50 was 890 nM.

`CC(C)(C)c1ccc(CNC(=O)/C=C/c2ccc(-c3nc4ccc(C(C)(C)C)cc4[nH]3)cc2)cc1` was tested. Which IC50 did it give?
The IC50 was 540 nM.

With `CC(C)c1sc(N2CCCCC2)nc1C(=O)Nc1ccc(F)cc1C(F)(F)F` as the compound, how does the IC50 read?
Its IC50 is 240 nM.

For `O=C1Nc2cccc3c2C1(CCCCN1CCC(c2cc4ccncc4[nH]2)CC1)CCC3` (stereo not drawn), which IC50 is on record?
The IC50 was 790 nM and 910 nM.

With `CCCNCc1c(O)ccc2c(CNCCC)c(O)ccc12` as the compound, how does the IC50 read?
The IC50 was 600 nM.

How did the IC50 turn out when `Cc1cc(NCCCCCCN)nc(Nc2ccc(Cl)cc2)n1` was run?
The IC50 was 450 nM.

With `O=C1CCCN1CCCNCc1ccc(-c2cccc(-c3nc4ccc(F)cc4[nH]3)c2)cc1` as the compound, how does the IC50 read?
Its IC50 is 660 nM.

With `COc1ccc(C2CC(=O)C3=C(C2)NC(C)=C(C(=O)OC(C)C)C3c2ccccc2F)cc1OC` (stereo not drawn) as the compound, how does the IC50 read?
Its IC50 is 60 nM.

With `COc1ccc(C)c(Nc2ccnc(Nc3ccc(-c4cnc[nH]4)cc3)n2)c1` as the compound, how does the IC50 read?
The IC50 was 1370 nM.

Which IC50 does the source give for `O=C(Nc1ccc([N+](=O)[O-])cc1)Nc1nc2ccc(Cl)cc2s1` here?
Its IC50 is 840 nM.

For `O=C(Nc1ccc(OC2CCN(Cc3ccsc3)CC2)c(Cl)c1)c1ccco1`, which IC50 is on record?
Its IC50 is 780 nM.

For `Cc1[nH]c(C)c(C(F)(F)F)c(=O)c1-c1ccc(Oc2ccc(OC(F)(F)F)cc2)cc1`, which IC50 is on record?
The IC50 was 170 nM.

`CCN(C)CCCn1c(N(C)C)nc2cc(-n3cnc4cc(-c5ccc(Cl)cc5)sc4c3=O)ccc21` was tested. Which IC50 did it give?
The IC50 was 1090 nM.

With `O=C(Cc1ccc(-n2cnnn2)cc1)N(Cc1cncn1Cc1cccc(C(F)(F)F)c1)CC1CC1` as the compound, how does the IC50 read?
The IC50 was 960 nM.

For `Cc1cccc(CNc2ncc(C)c(NCCC(=O)Nc3ccccc3)n2)c1`, which IC50 is on record?
Its IC50 is 1150 nM.

`Cc1cc(C(=O)Nc2nc(-c3ccccn3)nc3ccsc23)no1` was tested. Which IC50 did it give?
Its IC50 is 810 nM.

Which IC50 does the source give for `COc1ccc(-c2ccc(CNCc3ccccc3)cc2)cc1S(=O)(=O)NCCN1CCCC1` here?
Its IC50 is 730 nM.

How did the IC50 turn out when `CC(C)CC1c2[nH]c3ccccc3c2CCN1C(=O)CCc1ccccc1` (stereo not drawn) was run?
The IC50 was 970 nM.

With `O=C(Nc1cccc(-c2cccc(-c3nc4ccccc4[nH]3)c2)c1)c1csnn1` as the compound, how does the IC50 read?
The IC50 was 920 nM.

Which IC50 does the source give for `Cc1[nH]c2ccc([N+](=O)[O-])cc2c1C1=CCN(C)CC1` here?
The IC50 was 330 nM.

How did the IC50 turn out when `Cn1nc(C(F)(F)F)c(-c2ccc(Br)cc2)c1NC(=O)Cc1ccccc1F` was run?
The IC50 was 160 nM.

How did the IC50 turn out when `Cc1ccc(Cn2cnc(N3CC(C)NC(C)C3)cc2=O)cc1NC(=O)Nc1ccc(-c2ccccc2)cc1` (stereo not drawn) was run?
The IC50 was 850 nM.

For `Cc1ccc(Oc2ncccc2C(=O)Nc2cccc3cccnc23)c(C)c1`, which IC50 is on record?
The IC50 was 220 nM.

With `CCCN(CC1CC1)c1ncc(-c2ccccc2CNCc2ccccc2O)cn1` as the compound, how does the IC50 read?
The IC50 was 500 nM.

`Cc1cc(N2CCC(C)CC2)nc2cc(O)ccc12` was tested. Which IC50 did it give?
The IC50 was 1180 nM.

How did the IC50 turn out when `O=C(c1ccc(F)c(F)c1)N1CCOC(CCN2CCC(c3ccccc3)CC2)(c2ccc(Cl)c(Cl)c2)C1` (stereo not drawn) was run?
The IC50 was 1040 nM.

How did the IC50 turn out when `O=C1COc2ccccc2N1C/C=C(\CN1CCC(c2ccccc2)CC1)c1cc(Cl)cc(Cl)c1` was run?
The IC50 was 210 nM.

With `COc1ccc(CN(C)C(=O)CCNS(=O)(=O)c2ccc3c(c2)OCCCO3)cc1F` as the compound, how does the IC50 read?
The IC50 was 660 nM.

How did the IC50 turn out when `CC(C)C(=O)Nc1c(F)cc(F)cc1CCc1ccc(O)cc1` was run?
Its IC50 is 500 nM.

For `Cc1noc(C)c1-c1ccc2c(Nc3ccccc3N3CCOCC3)c(C(=O)NCc3ccccc3)cnc2c1`, which IC50 is on record?
Its IC50 is 1180 nM.

With `CCCCc1cc(NCc2ccncc2)nc(Nc2ccccc2)n1` as the compound, how does the IC50 read?
The IC50 was 840 nM.

Which IC50 does the source give for `O=C(Nc1ccc(S(=O)(=O)N2CCCCCC2)cc1)c1cc(-c2ccccc2O)n[nH]1` here?
The IC50 was 720 nM.

Which IC50 does the source give for `CC1(C)N=C(N)N=C(N)N1OCCCO` here?
Its IC50 is 220 nM.

Which IC50 does the source give for `COc1cccc(Nc2nccc(-c3c(-c4cccc(NC(=O)c5c(F)cccc5F)c4)nn4ccccc34)n2)c1` here?
Its IC50 is 180 nM.

How did the IC50 turn out when `O=C(c1ccccc1)N(Cc1ccccc1-c1ccc(CNCCc2ccccc2)cc1)C1CCN(Cc2ccccc2)CC1` was run?
Its IC50 is 990 nM.

With `COc1ccc(C=C2SC(=O)NC2=Nc2ccccc2)c(OC)c1` as the compound, how does the IC50 read?
Its IC50 is 470 nM.

Which IC50 does the source give for `FC(F)(F)c1cnc(Sc2nnc(-c3ccco3)o2)c(Cl)c1` here?
The IC50 was 790 nM.

Which IC50 does the source give for `O=C(/C=C/c1ccc(Cl)c(Cl)c1)NCCCCCN1CCC(C(=O)Nc2ccc(F)c(Cl)c2)CC1` here?
Its IC50 is 650 nM.

`O=C(Nc1cc(Cl)cc(Cl)c1)c1cnn(-c2ccc(F)cc2)c1C1CCNCC1` was tested. Which IC50 did it give?
Its IC50 is 850 nM.

`CC(CCc1ccccc1)NCC(O)c1ccc2c(c1)S(=O)(=O)c1ccccc1N2` (stereo not drawn) was tested. Which IC50 did it give?
Its IC50 is 1220 nM.

For `O=C(NCC1CCN(CC2CCCCC2)C1)c1cc(-c2cccc(C(F)(F)F)c2)cs1` (stereo not drawn), which IC50 is on record?
The IC50 was 740 nM.

`O=[N+]([O-])c1ccccc1C=NNc1ccnc2cc(Cl)ccc12` was tested. Which IC50 did it give?
The IC50 was 880 nM.

How did the IC50 turn out when `CC(Cc1ccc(NC(=O)c2ccc(CC(C)NCc3ccc(Cl)cc3)cc2)cc1)NCCc1cccc(Cl)c1` (stereo not drawn) was run?
The IC50 was 450 nM.

With `CCCCNc1nc(NCCCC)c2c(C)c(Cc3ccccc3)c(NCCCC)nc2n1` as the compound, how does the IC50 read?
The IC50 was 890 nM.

`N#Cc1ccc2c(c1)CCN(CCC1CCC(NC(=O)/C=C/c3ccc(F)c4ccccc34)CC1)CC2` (stereo not drawn) was tested. Which IC50 did it give?
The IC50 was 840 nM.

`O=C(Nc1ccc(C(=O)Nc2ccc(C3=NCCN3)cc2)cc1)Nc1ccc(C2=NCCN2)cc1` was tested. Which IC50 did it give?
The IC50 was 180 nM.

How did the IC50 turn out when `COc1cccc(C2=CC(c3ccccc3)n3ncc(C(=O)Nc4ccc(Cl)cc4)c3N2)c1` (stereo not drawn) was run?
Its IC50 is 1060 nM.

For `CCCN(CCC)CCCOc1ccc(C(=O)c2c(-c3ccc(OCCCN(CCC)CCC)cc3)oc3ccc(Cl)cc23)cc1`, which IC50 is on record?
The IC50 was 340 nM.

How did the IC50 turn out when `C/C=C1\CN2CC[C@H]1C[C@H]2[C@H](O)c1ccnc2ccc(OC)cc12` was run?
The IC50 was 220 nM and 320 nM.

Which IC50 does the source give for `Cc1ccccc1C1CCN(C2CCC(NC(=O)/C=C/c3cccc(Cl)c3F)CC2)CC1` (stereo not drawn) here?
Its IC50 is 1140 nM.

With `NC(N)=Nc1ccc(OCCCCCOc2ccc(N=C(N)N)cc2)cc1` as the compound, how does the IC50 read?
The IC50 was 190 nM.

With `Cc1ccc(CN2CCC(Oc3cccc(NC(=O)c4ccc(C(F)(F)F)cc4)c3)CC2)cc1` as the compound, how does the IC50 read?
Its IC50 is 1020 nM.

`CCOc1cc(C(=O)NCCCN2CCCCC2C)ccc1-c1nc2ccc(Cl)cc2[nH]1` (stereo not drawn) was tested. Which IC50 did it give?
Its IC50 is 1070 nM.

How did the IC50 turn out when `COC(=O)[C@@H](NC(=O)[C@H](CC(C)C)Nc1ccc(C#N)c2ccccc12)c1ccc(O)cc1` was run?
Its IC50 is 790 nM.

For `CN1CC=C(c2c[nH]c3ccc(OC(=O)c4ccccc4)cc23)C1`, which IC50 is on record?
The IC50 was 800 nM.

With `COc1cccc(NC(=O)c2cc(C(=O)Nc3cccc(OC)c3)cc([N+](=O)[O-])c2)c1` as the compound, how does the IC50 read?
The IC50 was 660 nM.

With `O=C(O)CCSc1ncnc2nc[nH]c12` as the compound, how does the IC50 read?
The IC50 was 130 nM.

`O=C(Nc1cccnc1)c1cc(-c2cccnc2)nc2ccc(Cl)cc12` was tested. Which IC50 did it give?
The IC50 was 1060 nM.

Which IC50 does the source give for `CC(C)C(=O)NC(Nc1ccc([N+](=O)[O-])cc1)C(Cl)(Cl)Cl` (stereo not drawn) here?
Its IC50 is 840 nM.

How did the IC50 turn out when `Cc1c(-c2cccc(NC(=O)C(C)(C)Oc3ccc(Cl)cc3)c2)nc2ncccn12` was run?
The IC50 was 170 nM.

Which IC50 does the source give for `O=C(Nc1ccc(-c2csc(-c3nc4ccccc4[nH]3)c2)cc1)Nc1ccc(F)c(F)c1F` here?
The IC50 was 330 nM.

`COc1ccc2c(=O)c3ccc(OC)cc3[nH]c2c1` was tested. Which IC50 did it give?
Its IC50 is 810 nM.

Which IC50 does the source give for `COC(=O)CNC(c1ccccc1)c1cc(Br)ccc1NC(=O)c1ccccc1Br` (stereo not drawn) here?
Its IC50 is 990 nM.

With `Cc1ccc2nc(-c3ccccc3Nc3ccnc4cc(-c5nccs5)ccc34)[nH]c2c1` as the compound, how does the IC50 read?
Its IC50 is 190 nM.

For `O=C(NCCCCN1CCC(c2c[nH]c3ccc(-c4ccccc4)cc23)CC1)c1ccc(-c2ccccc2)cc1`, which IC50 is on record?
The IC50 was 990 nM.

Which IC50 does the source give for `C=C[C@@H]1CN2CC[C@H]1C[C@H]2[C@H](O)c1cc(-c2ccc(Cl)cc2)nc2ccc(OC)cc12` here?
Its IC50 is 30 nM.

`O=C(Nc1cccc(-c2nc3ccccc3[nH]2)c1)c1cccc(NC(=O)c2ccco2)c1` was tested. Which IC50 did it give?
The IC50 was 360 nM.

With `Oc1cc(Nc2ccnc3cc(I)ccc23)c(F)cc1Cl` as the compound, how does the IC50 read?
The IC50 was 830 nM.

For `C[C@H]1CN(Cc2cccc(-c3cc(CNC(=O)c4cccc(CC5CCN(C)CC5)c4)ccc3F)c2)CCN1C`, which IC50 is on record?
Its IC50 is 1090 nM.

For `O=[N+]([O-])c1ccc(C(O)P(=O)(c2ccccc2)c2ccccc2)cc1` (stereo not drawn), which IC50 is on record?
Its IC50 is 340 nM.

For `O=C(NC1CC1)c1ccc(N2CCC(Cc3ccccc3)CC2)nc1`, which IC50 is on record?
Its IC50 is 760 nM.

`Cc1cccc2[nH]c(-c3cccc(-c4ccc(CNCc5ccc(S(C)(=O)=O)cc5)cc4)c3)nc12` was tested. Which IC50 did it give?
The IC50 was 180 nM.

With `COc1cccc(C(=O)Nc2ccc(Oc3ccc(Cl)cc3)cc2)c1` as the compound, how does the IC50 read?
The IC50 was 960 nM.
